Laboratory results taken from PubChem BioAssay (NCI).
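48-hour exposure; five concentrations; linearly interpolated endpoints. The concentration for full growth arrest is given as TGI.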

Tests used:
Experiment in all cases: NCI anticancer screen, dose series, 48 h
[1] = system: SK-OV-3 ovarian
[2] = system: MDA-N
[3] = system: ACHN renal
[4] = system: MOLT-4 leukemia
[5] = system: SR leukemia
[6] = system: CAKI-1 renal
[7] = system: A549 NSCLC
[8] = system: K-562 leukemia
[9] = system: MALME-3M melanoma
[10] = system: RXF 393 renal
[11] = system: UACC-257 melanoma
[12] = system: KM12 colon
[13] = system: HOP-62 NSCLC
[14] = system: SW-620 colon
[15] = system: COLO 205 colon
[16] = system: HCT-15 colon
[17] = system: HCC-2998 colon
[18] = system: NCI-H522 lung
[19] = system: M14 melanoma
[20] = system: SK-MEL-2 melanoma

| SMILES | TGI [1] | TGI [2] | TGI [3] | TGI [4] | TGI [5] | TGI [6] | TGI [7] | TGI [8] | TGI [9] | TGI [10] | TGI [11] | TGI [12] | TGI [13] | TGI [14] | TGI [15] | TGI [16] | TGI [17] | TGI [18] | TGI [19] | TGI [20] |
| --- | --- | --- | --- | --- | --- | --- | --- | --- | --- | --- | --- | --- | --- | --- | --- | --- | --- | --- | --- | --- |
| Cn1c(=O)c2[nH]c(/N=N\n3ccc4ccccc43)nc2n(C)c1=O | > 100 µM | > 100 µM | > 100 µM | > 100 µM | > 100 µM | > 100 µM | > 100 µM | > 100 µM | > 100 µM | > 100 µM | > 100 µM | > 100 µM | > 100 µM | > 100 µM | > 100 µM | > 100 µM | > 100 µM | > 100 µM | > 100 µM |  |
| NC(=S)SC1=NNC2(C(=O)N1)c1ccccc1-c1ccccc12 | > 10 µM | > 10 µM | > 10 µM |  | > 10 µM | > 10 µM | > 10 µM |  | > 10 µM | > 10 µM | > 10 µM | > 10 µM | > 10 µM | > 10 µM | > 10 µM | > 10 µM | > 10 µM | > 10 µM | > 10 µM |  |
| Nc1sccc1S(=O)(=O)c1ccsc1N | > 100 µM | > 100 µM | > 100 µM | > 100 µM |  | > 100 µM | > 100 µM |  | > 100 µM |  | > 100 µM | > 100 µM | > 100 µM | > 100 µM | > 100 µM | > 100 µM | > 100 µM | > 100 µM | > 100 µM | > 100 µM |
| Nc1ccc(S(=O)(=O)Nc2nc3ccccc3nc2Nc2ccc(S(N)(=O)=O)cc2)cc1 | > 100 µM | > 100 µM | > 100 µM | 93.3 µM | > 100 µM | > 100 µM | > 100 µM | > 100 µM | 97.4 µM | 62 µM | > 100 µM | > 100 µM | > 100 µM | > 100 µM | > 100 µM | > 100 µM |  | 96.6 µM | > 100 µM | 45.6 µM |
| CCC(C)[C@H]1C(=O)N=C(N)N1C(=O)OCc1ccccc1 (some centres not stated) |  | > 100 µM | > 100 µM | > 100 µM | > 100 µM | > 100 µM |  | > 100 µM | > 100 µM | > 100 µM | > 100 µM | > 100 µM | > 100 µM | > 100 µM | > 100 µM | > 100 µM | > 100 µM | > 100 µM |  | > 100 µM |
| O=[N+]([O-])c1nccn1CCCN=c1c2ccccc2n(O)c2ccccc12 | > 100 µM | > 100 µM | > 100 µM | > 100 µM | > 100 µM | > 100 µM | > 100 µM | > 100 µM | > 100 µM | > 100 µM | > 100 µM | > 100 µM | > 100 µM | > 100 µM | 55.6 µM | > 100 µM |  | > 100 µM | > 100 µM | > 100 µM |
| CCOC(=O)CCC(NC(=O)N1CCN(c2c(C)nc(C)[nH]c2=O)CC1)C(=O)OCC (configuration not stated) | > 100 µM | > 100 µM | > 100 µM | > 100 µM | > 100 µM | > 100 µM | > 100 µM | > 100 µM | > 100 µM | > 100 µM | > 100 µM | > 100 µM | > 100 µM | > 100 µM | > 100 µM | > 100 µM | > 100 µM | > 100 µM | > 100 µM |  |
| NS(=O)(=O)c1cc(S(N)(=O)=O)c(NC(=O)Nc2ccc(Cl)c(Cl)c2)c(Cl)c1Cl | > 100 µM | > 100 µM | > 100 µM | > 100 µM | > 100 µM | > 100 µM | > 100 µM | > 100 µM |  |  | > 100 µM | > 100 µM |  | > 100 µM | > 100 µM | > 100 µM | > 100 µM | > 100 µM | > 100 µM | > 100 µM |
| C=CC1(c2ccc(Cl)c(Cl)c2)OCCO1 | > 100 µM | > 100 µM | > 100 µM | > 100 µM | > 100 µM |  | > 100 µM | > 100 µM | > 100 µM | > 100 µM | > 100 µM | > 100 µM | 22.8 µM | > 100 µM | > 100 µM | > 100 µM | > 100 µM | > 100 µM | > 100 µM | > 100 µM |
| NNC(=O)CC(=O)Nc1ccc(C(=O)O)cc1 | > 100 µM | > 100 µM | > 100 µM | > 100 µM | > 100 µM | > 100 µM | > 100 µM | > 100 µM | > 100 µM | > 100 µM | > 100 µM | > 100 µM | > 100 µM | > 100 µM | > 100 µM | > 100 µM |  | > 100 µM |  | > 100 µM |
| Cn1ccnc1SC(F)(F)c1nc2ccccc2o1 | > 100 µM | > 100 µM | > 100 µM | > 100 µM |  | > 100 µM | > 100 µM | > 100 µM | > 100 µM | > 100 µM | > 100 µM | > 100 µM | > 100 µM | > 100 µM | > 100 µM | > 100 µM | > 100 µM | > 100 µM | > 100 µM | > 100 µM |
| CC(C)N(CCCNc1c2ccccc2nc2cccc([N+](=O)[O-])c12)C(C)C |  | < 0.01 µM | < 0.0301 µM |  | 11.8 µM | 0.593 µM | 0.0473 µM | 62.3 µM |  | 0.0377 µM | < 0.0508 µM |  |  | < 0.0397 µM | < 0.015 µM | 0.012 µM | < 0.01 µM |  | < 0.01 µM | 0.24 µM |
| N#Cc1cc2c(n(C3OC(CO)C(O)C(O)C3O)c1=S)CCCCC2 (configuration not stated) |  | > 100 µM | > 100 µM | > 100 µM | > 100 µM | > 100 µM | > 100 µM | > 100 µM | > 100 µM | > 100 µM | > 100 µM | > 100 µM | > 100 µM |  | > 100 µM | > 100 µM | > 100 µM | > 100 µM | > 100 µM | > 100 µM |
